Test results taken from patent US20040235792A1, “Serine protease inhibitors compromising a hydrogen-bond acceptor” (priority 2001, published 2004).
Where a SMILES comes first, the peptide text is derived from it. [ ]: non-standard residue; d: D form. dPip = O=C(O)[C@H]1CCCCN1

Assays:
[1] = biological target: UK (urokinase) (Homo sapiens, UniProt P00749); test: Score assay, UK (chromogenic substrate S-2444); assay type: biochemical; parameters: key: score = fold increase in inhibitor conc / inhibitor conc used (mM); settings: Table 3, substrate 125 μM
Excerpt: (§1) Score gives a facile measure of the effectiveness of an inhibitor requiring only one or two data points, rather than the twelve or more data points required to calculate an IC50.
(§2) The principle behind calculating the score is that, although the absolute values obtained from inhibitors of the same type may be different, the shape and range of the IC50 curves are quite similar.
(§3) Molecular Devices Corp. Thermomax plate reader.
S-2444 (pyro-Glu-Gly-Arg-pNa for UK) was obtained from Quadratech.
(§4) Buffer for Thr, Try, Pla, UK or Xa assay: 0.1M sodium phosphate; 0.2M sodium chloride; 0.5% PEG6000; 0.02% sodium azide, pH 7.4.
(§5) Final Substrates Concentrations were 25 μM, 113 μM, 22 μM and 125 μM for Try, Pla, Xa and UK Respectively.
(§6) The data from IC50 curves for 13 compounds were used to construct an average IC50 curve.
(§7) The average values for the fold increase at each 10% step are shown below:
(§8) Measurement of single concentrations of inhibitor on a plate reader (using MDC ‘Softmax’ software) gave a value from 9 to 0 when compared to a control without inhibitor which corresponds to the % inhibition a shown in Table 1. Provided that the plate reader number was >2 but <8 (linear part of the graph) the score could then be calculated as follows.
(§9) Score=fold increase in inhibitor concentration (see table 1)/concentration of inhibitor used (in mM)

[2] = biological target: Pla (plasmin) (Homo sapiens, UniProt P00747); test: Score assay, Pla (chromogenic substrate S-2251); assay type: biochemical; settings: Table 3, substrate 113 μM
Excerpt: as §1, §2, §3
S-2251 (H-D-Val-Leu-Lys-pNa for Pla) was obtained from Quadratech.
as §4, §5, §6, §7, §8, §9

[3] = biological target: T1, Human α-thrombin (Homo sapiens, UniProt P00734); test: Score assay, Thr (chromogenic substrate S-2238); assay type: biochemical; settings: Score = fold increase in inhibitor concentration / concentration of inhibitor used (in mM), 37° C., pH 7.4
T1 construct: Human α-thrombin was obtained from J. Freysinnet (Strasbourg); purchased J. Freysinnet (Strasbourg)
Excerpt: as §1, §2, §3
S-2238 (H-D-Phe-Pip-Arg-pNA, for Thr) was obtained from Quadratech.
as §4
(§10) Buffer for FIXa assay: 50 mM Tris; 100 mM sodium chloride; 0.5% PEG 6000, pH 7.4. The aqueous buffer was freshly mixed each day with ethylene glycol (65%:35% respectively) Human α-thrombin was obtained from J. Freysinnet (Strasbourg).
Inhibitor (100 μl of dilution in buffer of 1/20 or higher as appropriate from stock in DMSO) is added to substrate (50 μl of a dilution of 1/100 of 2.4 mg/ml stock) for 2 minutes at 37° C. Thr (50 μl of a dilution of {fraction (1/10,000)} of stock at 1 mg/ml) is added.
as §6, §7, §8, §9

[4] = biological target: Xa (factor X activated) (Homo sapiens, UniProt P00742); test: Score assay, Xa (chromogenic substrate S-2765); assay type: biochemical; parameters: key: score = fold increase in inhibitor conc / inhibitor conc used (mM); settings: Table 3, substrate 22 μM
Excerpt: as §1, §2, §3
S-2765 (N-α-Z-D-ArgGly-Arg-pNa for Xa) was obtained from Quadratech.
as §4, §5, §6, §7, §8, §9

[5] = biological target: T2, FIXa (Homo sapiens, UniProt P00740); test: Score assay, FIXa (chromogenic substrate Pefachrome IXa); assay type: biochemical; parameters: key: fold increase in inhibitor conc / inhibitor conc used (mM); settings: Score = fold increase in inhibitor concentration / concentration of inhibitor used (in mM), 37° C., pH 7.4
T2 construct: FIXa was obtained from Haematologics; purchased Haematologics
Experimental: as §1, §2, §3
Pefachrome IXa (Kordia, for FIXa)
as §10
FIXa was obtained from Haematologics.
FIXa (50 μl of a stock at 0.01 mg/ml) is added.
as §6, §7, §8, §9

[6] = biological target: Try (trypsin) (Homo sapiens, UniProt P07477); test: Score assay, Try (chromogenic substrate S-2288); assay type: biochemical; parameters: key: score = fold increase in inhibitor conc / inhibitor conc used (mM); settings: Table 3, substrate 25 μM
Excerpt: as §1, §2, §3
S-2288 (H-D-Ileu-Pro-Arg-pNa for Try) was obtained from Quadratech.
as §4, §5, §6, §7, §8, §9

[7] = biological target: thrombin (Homo sapiens, UniProt P00734); settings: cited from earlier work; for KassThr/KassThy: selectivity ratio
[8] = biological target: protein Ca (Homo sapiens, UniProt P04070); settings: read-out: IC50 (protein Ca system); cited from earlier work
[9] = cited from earlier work
[10] = Table 1 comparators, single concentration
[11] = Table 1 comparators, single concentration, higher = more effective

Sequence of Xa (factor X activated) (P00742 235-488 limits assumed): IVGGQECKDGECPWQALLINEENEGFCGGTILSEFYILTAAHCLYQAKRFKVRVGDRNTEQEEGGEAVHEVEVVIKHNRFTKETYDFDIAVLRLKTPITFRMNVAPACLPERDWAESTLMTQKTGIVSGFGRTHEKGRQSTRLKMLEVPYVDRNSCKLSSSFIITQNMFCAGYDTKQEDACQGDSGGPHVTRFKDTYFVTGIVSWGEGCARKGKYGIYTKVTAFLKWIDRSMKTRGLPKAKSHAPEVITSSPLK
Sequence of Xa (factor X activated) (P00742 41-179 partner limits assumed): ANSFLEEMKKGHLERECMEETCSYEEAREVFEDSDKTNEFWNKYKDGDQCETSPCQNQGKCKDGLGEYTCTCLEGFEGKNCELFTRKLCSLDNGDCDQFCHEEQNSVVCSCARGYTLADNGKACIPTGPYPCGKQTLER
T2 sequence (P00740 227-461 limits assumed): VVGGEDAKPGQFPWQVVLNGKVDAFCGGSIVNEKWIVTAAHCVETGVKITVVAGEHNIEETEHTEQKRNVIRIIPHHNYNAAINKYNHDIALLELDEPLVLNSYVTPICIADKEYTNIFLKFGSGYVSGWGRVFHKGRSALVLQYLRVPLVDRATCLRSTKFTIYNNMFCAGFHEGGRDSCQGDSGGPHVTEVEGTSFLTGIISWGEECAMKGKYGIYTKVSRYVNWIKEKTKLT
T2 sequence (P00740 47-191 partner limits assumed): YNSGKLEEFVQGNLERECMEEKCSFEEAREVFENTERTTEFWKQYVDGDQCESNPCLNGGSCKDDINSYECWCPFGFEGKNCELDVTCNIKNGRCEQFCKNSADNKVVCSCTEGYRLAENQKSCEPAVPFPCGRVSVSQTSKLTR
Sequence of Pla (plasmin) (P00747 581-810 limits assumed, species assumed): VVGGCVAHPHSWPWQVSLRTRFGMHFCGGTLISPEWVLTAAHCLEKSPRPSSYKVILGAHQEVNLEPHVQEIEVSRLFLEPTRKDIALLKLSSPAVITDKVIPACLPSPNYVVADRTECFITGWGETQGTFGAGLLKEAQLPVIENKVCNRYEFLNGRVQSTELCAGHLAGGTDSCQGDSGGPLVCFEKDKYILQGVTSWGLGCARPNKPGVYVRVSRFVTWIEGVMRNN
Sequence of Pla (plasmin) (P00747 97-580 partner limits assumed, species assumed): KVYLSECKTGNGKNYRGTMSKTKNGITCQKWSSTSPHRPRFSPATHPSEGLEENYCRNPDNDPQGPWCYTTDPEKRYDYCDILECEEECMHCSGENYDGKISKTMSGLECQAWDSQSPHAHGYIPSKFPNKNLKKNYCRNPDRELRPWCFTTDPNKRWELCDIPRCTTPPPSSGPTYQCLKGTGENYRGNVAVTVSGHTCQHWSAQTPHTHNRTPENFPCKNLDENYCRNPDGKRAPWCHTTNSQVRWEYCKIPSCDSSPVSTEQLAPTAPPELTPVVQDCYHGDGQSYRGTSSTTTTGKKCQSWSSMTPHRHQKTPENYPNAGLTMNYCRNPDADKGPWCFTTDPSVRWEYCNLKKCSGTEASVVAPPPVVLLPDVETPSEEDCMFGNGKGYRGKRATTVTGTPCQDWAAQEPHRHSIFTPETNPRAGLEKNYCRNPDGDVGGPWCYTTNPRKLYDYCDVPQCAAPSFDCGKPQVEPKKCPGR
Sequence of protein Ca (P04070 212-461 limits assumed): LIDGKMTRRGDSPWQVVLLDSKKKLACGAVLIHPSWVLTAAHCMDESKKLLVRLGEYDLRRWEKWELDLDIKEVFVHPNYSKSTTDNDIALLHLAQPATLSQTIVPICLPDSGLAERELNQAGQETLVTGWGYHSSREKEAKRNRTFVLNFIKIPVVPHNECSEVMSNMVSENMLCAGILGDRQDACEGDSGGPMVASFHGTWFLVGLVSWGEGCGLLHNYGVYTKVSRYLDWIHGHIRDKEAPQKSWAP
Sequence of protein Ca (P04070 43-197 partner limits assumed): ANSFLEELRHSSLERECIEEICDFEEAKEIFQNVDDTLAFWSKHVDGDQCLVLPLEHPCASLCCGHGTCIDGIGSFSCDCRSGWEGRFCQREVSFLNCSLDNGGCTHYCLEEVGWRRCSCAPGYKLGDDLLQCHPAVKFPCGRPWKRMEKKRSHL

| Structure (SMILES) | UK (score) [1] | Pla (score) [2] | Thr Score ([3]; Table 3) | Xa (score) [4] | FIXa score ([5]; Table 3) | Try (score) [6] | also measured |
| --- | --- | --- | --- | --- | --- | --- | --- |
| CN=C(N)SCc1cccc(B(O)O)c1 [compound 903] | 27 | 21 | 38.7 | 39 | 19 | 21 | – |
| CN[C@H](Cc1ccccc1)C(=O)N1CCC[C@H]1C(=O)N[C@H](C=O)CCCN=C(N)N [LY294468, H-D-MePhe-Pro-Arginal] | – | – | – | – | – | – | KassThr [7]: 5.4e+06 L/mol; KassThr/KassThy [7]: 5.1 |
| N=C(N)SCc1cc(B(O)O)ccc1Oc1ccc2c(c1)CCCC2 [compound 1070] | – | – | 2174 | – | 346 | – | – |
| N#Cc1cccc(Oc2ccc(B(O)O)cc2CSC(=N)N)c1 [compound 1069] | – | – | 4156 | – | 229 | – | – |
| Br.N=C(N)SCc1cccc(I)c1 [compound 885] | – | – | – | – | – | – | Thr Score [3, 10]: 10; FIXa score [5, 11]: 0.6 |
| Br.N=C(N)NC(=N)Nc1ccc(I)cc1 [compound 932] | – | – | – | – | – | – | Thr Score [3, 10]: 0; FIXa score [5, 11]: 0.3 |
| Br.N=C(N)NC(=N)Nc1cc(F)cc(F)c1Br [compound 929] | – | – | – | – | – | – | Thr Score [3, 10]: 0; FIXa score [5, 11]: 1.6 |
| COc1cccc(Oc2ccc(B3OC(C)(C)C(C)(C)O3)cc2CSC(=N)N)c1 [compound 1058] | – | – | 666 | – | 97 | – | – |
| Br.COC(=O)c1cccc(CSC(=N)N)c1 [compound 887] | – | – | – | – | – | – | Thr Score [3, 10]: 5.3; FIXa score [5, 11]: 0.9 |
| CC1(C)OB(c2ccccc2CSC(=N)N)OC1(C)C [compound 832] | 26 | 1 | 70 | 7 | 7 | 7 | – |
| Br.CC(C)c1ccc(NC(=N)NC(=N)N)c(Br)c1 [compound 931] | – | – | – | – | – | – | Thr Score [3, 10]: 7.7; FIXa score [5, 11]: 0.8 |
| CC(=O)NNC(=N)SCc1cccc(B(O)O)c1 [compound 915] | 4 | 1 | 2.0 | 1 | 10.1 | 2 | – |
| CC(=O)NC(Cc1ccccc1)C(=O)N1CCCC1C(=O)NC(CCCNC(=N)N)B(O)O [DuP 714, Ac-D-Phe-Pro-boro Arg-OH] | – | – | – | – | – | – | IC50 [8]: 750 nM |
| CC(C)(C)OC(=O)N=C(N)N(Cc1cccc(B2OC(C)(C)C(C)(C)O2)c1)C(=O)OC(C)(C)C [compound 970] | – | – | 12 | – | 80 | – | – |
| CC1(C)OB(c2cccc(CSC(=N)N)c2)OC1(C)C [compound 852] | 792 | 393 | 326 | 624 | 76 | 624 | – |
| N=C(N)SCc1ccc(B(O)O)cc1 [compound 866] | 3076 | 32 | 6.4 | 6 | 6.4 | 440 | – |
| N=C(N)SCc1cccc([N+](=O)[O-])c1 [compound 896] | 3 | 2 | 295 | 4 | 2 | 4 | – |
| c1ccc2ncccc2c1 [quinoline] | – | – | – | – | – | – | pKa [9]: 4.0 |

| Structure (SMILES) | UK (score) [1] | Pla (score) [2] | Thr Score ([3]; Table 3) | Xa (score) [4] | FIXa score ([5]; Table 3) | Try (score) [6] | also measured |
| --- | --- | --- | --- | --- | --- | --- | --- |
| CC1(C)OB(c2ccc(N3CCN(c4ccccn4)CC3)c(CSC(=N)N)c2)OC1(C)C [compound 1031] | – | – | 15(*) | – | 39.0 | – | – |
| CC1(C)OB(c2cccc(CNC(=N)N)c2)OC1(C)C [compound 1006] | 70 | 27 | 106 | 51 | 46 | 37 | – |
| N=C(N)SCc1cc(B(O)O)ccc1Oc1ccc(C(=O)c2ccccc2)cc1 [compound 1072] | – | – | 1410 | – | 746 | – | – |
| Cc1cc(CSC(=N)N)cc(B(O)O)c1 [compound 967] | 785 | 312 | 1645 | 905 | 205 | 3 | – |
| COc1ccc(CSC(=N)N)cc1B1OC(C)(C)C(C)(C)O1 [compound 973] | 1210 | 121 | 1210 | 167 | 32 | 167 | – |
| N=C(N)SCc1cccc(B(O)O)c1 [compound 864] | 776 | 289 | 421 | 868 | 209 | 868 | – |
| CC1(C)OB(c2ccc(Oc3cccc(Cl)c3)c(CSC(=N)N)c2)OC1(C)C [compound 1057] | – | – | 572 | – | 157 | – | – |
| Br.Cc1ccc(I)cc1NC(=N)NC(=N)N [compound 930] | – | – | – | – | – | – | Thr Score [3, 10]: 0; FIXa score [5, 11]: 0.6 |
| N=C(N)SCc1ccccc1B(O)O [compound 865] | 26 | 3 | 70 | 7 | 5.4 | 7 | – |
| CC(C)N(CC(=O)N[C@H](C=O)CCCNC(=N)N)C(=O)[C@H]1CCCCN1 [D-hPro-(Nα-isopropyl)Gly-Arg-H] | – | – | – | – | – | – | KassThr/KassThy [7]: 20 |
| N=C(N)NCCC[C@@H](C=O)NC(=O)[C@@H]1CCCN1C(=O)[C@H]1CCCCN1 [D-hPro-Pro-Arg-H] (H-[dPip]-Pro-Arg-aldehyde) | – | – | – | – | – | – | KassThr [7]: 2e+06 L/mol |
| N=C(N)SCc1cc(B(O)O)ccc1Oc1ccccc1 [compound 977] | 583 | 583 | 333 | 889 | 306 | 583 | – |
| N=C(N)SCc1cc(CSC(=N)N)cc(B(O)O)c1 [compound 968] | 880 | 640 | 1215 | 1862 | 59.6 | 640 | – |
| CC(SC(=N)N)c1cccc(B2OC(C)(C)C(C)(C)O2)c1 (centres unmarked) [compound 974] | 934 | 324 | 6769 | 680 | 64 | 324 | – |
| CC(C)Cc1ccc(Oc2ccc(B3OC(C)(C)C(C)(C)O3)cc2CSC(=N)N)cc1 [compound 1059] | – | – | 1959 | – | 285 | – | – |
| CC1(C)OB(c2ccc(Oc3ccccc3)c(CSC(=N)N)c2)OC1(C)C [compound 1055] | – | – | 2768 | – | 291 | – | – |
| CC1(C)OB(c2ccc(Oc3ccc(Oc4ccccc4)cc3)c(CSC(=N)N)c2)OC1(C)C [compound 1056] | – | – | 455 | – | 626 | – | – |
